Data on 21 compounds can be found in patent US20200392158A1, “INHIBITORS OF LEUCINE RICH REPEAT KINASE 2” (GLAXOSMITHKLINE INTELLECTUAL PROPERTY DEVELOPMENT LIMITED, priority 2017, published 2020).

A value given as a limit tells only on which side of the number the result lay.

Test [1] has as its target T1, full length G2019 human LRRK2 (Homo sapiens, UniProt Q5S007, R50H).
T1 construct: made in house; host or cells: HEK293 6E cells transduced with BacMam virus (virus generated in Sf9 cells)
Briefly: Full length G2019 human LRRK2 inhibition mass spectrometry assay. It counts as biochemical. Particulars: LRRKtide to phospho-LRRKtide conversion, RapidFire MS, 2 mM ATP. In a few lines: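 Inhibition taken as reduced LRRKtide phosphorylation, quantified by RapidFire-coupled triple-quadrupole MS as product/(product+substrate) peak area. Reaction: 2 mM ATP, 25 μM peptide, ~25 nM full-length G2019 Flag-LRRK2, Hepes pH 7.2 buffer, room temperature for 1 h. 11-point 1-in-4 dilutions from 100 μM; logistic fit gives IC50, reported as pIC50.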

The target of test [2] is T2, LRRK2 kinase in SH-SY5Y cells over-expressing recombinant full length LRRK2 (Homo sapiens, UniProt Q5S007).
T2 construct: A BacMam virus expressing full length recombinant LRRK2 was purchased from Invitrogen; host or cells: SH-SY5Y human neuroblastoma cells transduced with BacMam LRRK2 virus
Briefly: Recombinant cellular LRRK2 AlphaScreen assay (LRRK2 Ser935 phosphorylation). In kind it is cell-based. The conditions noted are these: 60 min. In a few lines: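 Read-out is AlphaScreen of LRRK2 pSer935 over total LRRK2 in lysates of SH-SY5Y cells over-expressing full-length LRRK2 via BacMam (24 h transduction). Cells were exposed 60 min at 37 °C to an 11-point 1-in-4 dilution series starting at 10 uM; sigmoidal fit.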
Background: Alpha assays give light when donor and acceptor beads are brought close together.

T2 sequence (Q5S007 whole entry): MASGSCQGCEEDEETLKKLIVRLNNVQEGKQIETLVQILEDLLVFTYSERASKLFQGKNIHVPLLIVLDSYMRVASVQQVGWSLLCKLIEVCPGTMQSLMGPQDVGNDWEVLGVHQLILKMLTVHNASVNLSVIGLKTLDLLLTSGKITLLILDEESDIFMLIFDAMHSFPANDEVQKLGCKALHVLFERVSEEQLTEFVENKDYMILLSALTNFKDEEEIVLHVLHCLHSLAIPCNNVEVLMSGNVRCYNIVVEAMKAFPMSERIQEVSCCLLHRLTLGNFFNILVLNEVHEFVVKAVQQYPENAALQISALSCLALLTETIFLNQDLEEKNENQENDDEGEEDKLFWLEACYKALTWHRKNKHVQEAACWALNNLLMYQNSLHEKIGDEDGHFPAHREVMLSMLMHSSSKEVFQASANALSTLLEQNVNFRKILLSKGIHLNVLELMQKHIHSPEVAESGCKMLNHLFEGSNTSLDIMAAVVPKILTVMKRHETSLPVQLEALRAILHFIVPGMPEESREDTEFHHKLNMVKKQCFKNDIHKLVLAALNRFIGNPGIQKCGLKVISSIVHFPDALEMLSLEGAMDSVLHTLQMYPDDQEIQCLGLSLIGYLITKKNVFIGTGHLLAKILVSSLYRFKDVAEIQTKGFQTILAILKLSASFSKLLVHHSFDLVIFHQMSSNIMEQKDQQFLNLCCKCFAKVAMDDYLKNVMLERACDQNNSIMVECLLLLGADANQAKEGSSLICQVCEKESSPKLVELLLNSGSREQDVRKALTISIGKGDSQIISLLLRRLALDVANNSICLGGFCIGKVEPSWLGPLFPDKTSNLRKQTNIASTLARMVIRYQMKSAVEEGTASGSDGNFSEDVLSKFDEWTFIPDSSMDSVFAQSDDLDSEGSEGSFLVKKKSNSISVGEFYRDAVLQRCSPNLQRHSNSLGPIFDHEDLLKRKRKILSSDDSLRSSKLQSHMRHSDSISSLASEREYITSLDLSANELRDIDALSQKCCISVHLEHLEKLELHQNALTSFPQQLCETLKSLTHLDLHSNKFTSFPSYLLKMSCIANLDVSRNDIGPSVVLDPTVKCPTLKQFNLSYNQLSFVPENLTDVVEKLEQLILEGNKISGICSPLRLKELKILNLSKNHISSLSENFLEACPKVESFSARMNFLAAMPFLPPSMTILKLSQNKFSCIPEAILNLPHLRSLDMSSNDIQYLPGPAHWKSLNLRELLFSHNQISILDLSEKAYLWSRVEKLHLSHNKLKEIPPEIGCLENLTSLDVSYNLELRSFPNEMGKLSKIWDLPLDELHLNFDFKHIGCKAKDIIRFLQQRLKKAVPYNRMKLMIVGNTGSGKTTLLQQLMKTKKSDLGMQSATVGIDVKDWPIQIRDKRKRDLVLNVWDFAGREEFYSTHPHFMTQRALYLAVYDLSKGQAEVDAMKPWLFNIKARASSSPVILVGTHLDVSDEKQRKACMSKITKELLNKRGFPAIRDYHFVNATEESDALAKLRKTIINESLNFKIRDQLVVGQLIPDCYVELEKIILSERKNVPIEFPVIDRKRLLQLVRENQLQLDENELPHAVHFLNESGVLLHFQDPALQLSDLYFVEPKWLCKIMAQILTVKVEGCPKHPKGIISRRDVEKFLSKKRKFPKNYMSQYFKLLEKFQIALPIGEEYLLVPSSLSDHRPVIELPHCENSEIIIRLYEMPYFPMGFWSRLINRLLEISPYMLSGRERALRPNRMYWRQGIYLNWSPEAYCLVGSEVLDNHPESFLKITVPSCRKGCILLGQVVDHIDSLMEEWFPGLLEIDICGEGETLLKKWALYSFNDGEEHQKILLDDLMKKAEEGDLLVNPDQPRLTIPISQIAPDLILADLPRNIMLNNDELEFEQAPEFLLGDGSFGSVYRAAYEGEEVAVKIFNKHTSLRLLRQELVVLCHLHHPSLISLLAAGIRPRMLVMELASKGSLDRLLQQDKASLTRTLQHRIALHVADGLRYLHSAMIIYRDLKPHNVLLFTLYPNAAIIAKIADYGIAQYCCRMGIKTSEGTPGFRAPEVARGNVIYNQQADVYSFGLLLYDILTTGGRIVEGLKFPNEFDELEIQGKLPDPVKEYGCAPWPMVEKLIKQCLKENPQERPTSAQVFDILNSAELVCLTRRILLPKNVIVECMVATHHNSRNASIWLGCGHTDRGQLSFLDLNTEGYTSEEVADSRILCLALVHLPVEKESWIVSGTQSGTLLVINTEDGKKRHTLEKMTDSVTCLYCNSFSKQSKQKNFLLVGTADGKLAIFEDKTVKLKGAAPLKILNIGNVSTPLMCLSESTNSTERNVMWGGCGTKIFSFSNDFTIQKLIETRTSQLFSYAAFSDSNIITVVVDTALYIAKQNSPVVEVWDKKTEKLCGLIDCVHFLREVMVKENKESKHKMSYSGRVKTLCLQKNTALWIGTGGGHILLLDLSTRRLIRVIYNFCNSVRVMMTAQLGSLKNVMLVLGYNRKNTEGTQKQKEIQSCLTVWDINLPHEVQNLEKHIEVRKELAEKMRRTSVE
T1 sequence (Q5S007 with tags, fused parts or gaps R50H): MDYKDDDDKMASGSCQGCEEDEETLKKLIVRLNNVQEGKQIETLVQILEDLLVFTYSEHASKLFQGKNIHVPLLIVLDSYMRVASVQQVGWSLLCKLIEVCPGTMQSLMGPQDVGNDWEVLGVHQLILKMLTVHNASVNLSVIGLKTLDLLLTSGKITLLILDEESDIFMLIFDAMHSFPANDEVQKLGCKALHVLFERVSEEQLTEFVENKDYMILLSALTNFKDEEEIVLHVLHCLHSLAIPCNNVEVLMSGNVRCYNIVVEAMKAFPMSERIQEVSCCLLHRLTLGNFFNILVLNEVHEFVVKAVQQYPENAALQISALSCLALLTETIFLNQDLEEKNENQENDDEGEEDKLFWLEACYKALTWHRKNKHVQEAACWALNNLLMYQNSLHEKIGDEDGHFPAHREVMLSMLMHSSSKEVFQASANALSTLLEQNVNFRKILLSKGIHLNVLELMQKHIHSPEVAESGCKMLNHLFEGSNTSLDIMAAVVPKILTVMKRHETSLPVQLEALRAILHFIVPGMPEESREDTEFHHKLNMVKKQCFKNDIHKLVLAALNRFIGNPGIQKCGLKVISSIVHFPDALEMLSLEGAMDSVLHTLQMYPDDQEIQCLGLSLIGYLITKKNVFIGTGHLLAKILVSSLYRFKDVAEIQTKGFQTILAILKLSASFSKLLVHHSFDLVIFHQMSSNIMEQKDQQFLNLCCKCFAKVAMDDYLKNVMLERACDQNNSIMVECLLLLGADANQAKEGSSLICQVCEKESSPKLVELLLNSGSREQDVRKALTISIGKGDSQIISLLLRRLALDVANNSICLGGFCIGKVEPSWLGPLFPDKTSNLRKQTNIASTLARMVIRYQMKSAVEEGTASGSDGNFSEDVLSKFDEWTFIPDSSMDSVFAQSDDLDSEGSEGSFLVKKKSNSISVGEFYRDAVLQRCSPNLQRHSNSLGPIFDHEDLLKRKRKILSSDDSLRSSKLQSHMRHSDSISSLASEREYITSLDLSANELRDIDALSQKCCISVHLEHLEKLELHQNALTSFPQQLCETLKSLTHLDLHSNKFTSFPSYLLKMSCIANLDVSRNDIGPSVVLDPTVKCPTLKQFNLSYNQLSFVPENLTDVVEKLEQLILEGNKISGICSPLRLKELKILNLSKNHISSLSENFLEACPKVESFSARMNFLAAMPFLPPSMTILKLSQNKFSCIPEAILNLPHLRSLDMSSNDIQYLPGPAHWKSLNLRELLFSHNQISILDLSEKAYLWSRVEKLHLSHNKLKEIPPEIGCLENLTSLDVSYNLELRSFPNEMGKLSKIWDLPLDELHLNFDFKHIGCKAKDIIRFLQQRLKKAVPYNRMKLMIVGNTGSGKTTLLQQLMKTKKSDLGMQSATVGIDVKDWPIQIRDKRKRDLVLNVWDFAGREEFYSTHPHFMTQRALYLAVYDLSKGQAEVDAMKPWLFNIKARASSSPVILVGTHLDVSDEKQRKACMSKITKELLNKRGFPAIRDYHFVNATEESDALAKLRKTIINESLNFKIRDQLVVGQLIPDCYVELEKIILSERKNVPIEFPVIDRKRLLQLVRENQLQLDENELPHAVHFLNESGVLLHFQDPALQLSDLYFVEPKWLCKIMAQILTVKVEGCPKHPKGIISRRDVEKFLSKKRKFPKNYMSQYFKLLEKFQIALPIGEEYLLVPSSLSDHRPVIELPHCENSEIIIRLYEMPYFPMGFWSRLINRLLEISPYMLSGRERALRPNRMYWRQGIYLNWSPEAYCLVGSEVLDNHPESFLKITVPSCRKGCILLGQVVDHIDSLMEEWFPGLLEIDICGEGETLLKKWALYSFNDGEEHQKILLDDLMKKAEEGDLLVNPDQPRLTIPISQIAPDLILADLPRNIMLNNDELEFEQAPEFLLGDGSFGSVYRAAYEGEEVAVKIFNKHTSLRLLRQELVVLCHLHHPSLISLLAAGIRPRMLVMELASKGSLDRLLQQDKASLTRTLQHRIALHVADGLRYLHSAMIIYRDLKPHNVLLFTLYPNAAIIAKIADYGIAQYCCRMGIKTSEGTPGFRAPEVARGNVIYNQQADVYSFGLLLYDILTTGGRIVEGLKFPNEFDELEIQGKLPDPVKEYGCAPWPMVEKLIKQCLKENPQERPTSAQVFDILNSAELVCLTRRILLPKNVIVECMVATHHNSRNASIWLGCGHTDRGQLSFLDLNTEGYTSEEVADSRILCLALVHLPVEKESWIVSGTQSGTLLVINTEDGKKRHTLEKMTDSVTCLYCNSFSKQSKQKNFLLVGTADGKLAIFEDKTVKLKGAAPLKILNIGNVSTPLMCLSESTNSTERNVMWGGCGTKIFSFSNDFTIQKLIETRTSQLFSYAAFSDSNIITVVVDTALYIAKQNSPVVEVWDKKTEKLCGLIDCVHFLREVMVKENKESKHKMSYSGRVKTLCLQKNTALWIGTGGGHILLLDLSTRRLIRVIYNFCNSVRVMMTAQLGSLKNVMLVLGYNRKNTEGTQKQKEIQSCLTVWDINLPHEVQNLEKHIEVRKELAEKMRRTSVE

The IC50 is the point on the concentration scale where inhibition reaches its midpoint. As to `COC1CNc2nc(ncc2Cl)Nc2c(nn(C3CC(C)OC(C)C3)c2C)OC1` (single isomer, unassigned) [E198, 14-Chloro-5-(2,6-dimethyloxan-4-yl)-10-methoxy-4-methyl-8-oxa-2,5,6,12,16,17-hexaazatricyclo[11.3.1.0^3,7] heptadeca-1(16),3,6,13(17),14-pentaene], the half-maximal inhibitory concentration (IC50) in test [1] and in test [2] was not above 100 nM each time.

Regarding `Cc1c2c(nn1C1CC(F)CN(C3COC3)C1)OCC[C@@H](C)Nc1nc(ncc1Cl)N2` (stereo partly drawn) [E410, (11R)-14-Chloro-5-[5-fluoro-1-(oxetan-3-yl)piperidin-3-yl]-4,11-dimethyl-8-oxa-2,5,6,12,16,17 hexaazatricyclo[11.3.1.0^3,7] heptadeca-1(16),3,6,13(17),14-pentaene], the IC50 in test [1] and in test [2] was not above 100 nM throughout.

With `Cc1c2c(nn1C1CCOCC1)OCCC(C1CC1)Nc1nc(ncc1Cl)N2` (single isomer, unassigned) [E293, 14-Chloro-11-cyclopropyl-4-methyl-5-(oxan-4-yl)-8-oxa-2,5,6,12,16,17-hexaazatricyclo[11.3.1.0^3,7]heptadeca-1(16),3,6,13(17),14-pentaene], the IC50 in test [1] and in test [2] was not above 100 nM in each case.

With `Cc1c2c(nn1C1COC1)OCC[C@@H](C)Nc1nc(ncc1Cl)N2` [E52, (11R)-14-chloro-4,11-dimethyl-5-(oxetan-3-yl)-8-oxa-2,5,6,12,16,17-hexaazatricyclo [11.3.1.0^3,7]heptadeca-1(16),3,6,13(17),14-pentaene], the IC50 in test [1] and in test [2] was not above 100 nM each time.

On to `Cc1c2c(nn1[C@H]1CCOC1)OCC[C@@H](C)Nc1nc(ncc1Cl)N2` [E46, (11R)-14-chloro-4,11-dimethyl-5-[(3S)-oxolan-3-yl]-8-oxa-2,5,6,12,16,17-hexaaza tricyclo [11.3.1.0^3,7]heptadeca-1(16),3,6,13(17),14-pentaene], for which the values for the half-inhibitory concentration (IC50) in test [1] and in test [2] were not above 10000 nM and not above 100 nM, respectively.

Consider `COC1CNc2nc(ncc2Cl)Nc2c(nn(C3CCOCC3F)c2C)OC1` (single isomer, unassigned) [E70, 14-Chloro-5-(3-fluorooxan-4-yl)-10-methoxy-4-methyl-8-oxa-2,5,6,12,16,17-hexaaza tricyclo[11.3.1.0^3,7]heptadeca-1(16),3,6,13(17),14-pentaene], for which the IC50 in test [1] and in test [2] was not above 100 nM throughout.

As to `Cc1c2c(nn1C1CCOCC1)OCCCCNc1nc(ncc1Cl)N2` [E109, 15-Chloro-4-methyl-5-(oxan-4-yl)-8-oxa-2,5,6,13,17,18-hexaaza tricyclo[12.3.1.0^3,7]octadeca-1(17),3,6,14(18),15-pentaene], the IC50 in test [1] and in test [2] was not above 100 nM each time.

Consider `FC(F)c1c2c(nn1C1CCOCC1)OCCCNc1nc(ncc1Cl)N2` [E112, 4-Chloro-4-(difluoromethyl)-5-(oxan-4-yl)-8-oxa-2,5,6,12,16,17-hexaazatricyclo[11.3.1.0^3,7]heptadeca-1(16),3,6,13(17),14-pentaene], for which the IC50 in test [1] and in test [2] was not above 100 nM each time.

As to `Cc1c2c(nn1C1CCOCC1F)OC[C@@H](F)[C@@H](C)Nc1nc(ncc1Cl)N2` (stereo partly drawn) [E387, (10S, 11R)-14-Chloro-10-fluoro-5-(3-fluorooxan-4-yl)-4,11-dimethyl-8-oxa-2,5,6,12,16,17-hexaazatricyclo[11.3.1.0^3,7] heptadeca-1(16),3,6,13(17),14-pentaene], the IC50 in test [1] and in test [2] was not above 100 nM throughout.

Take `C=Cc1cnc2nc1N[C@H](C)CCOc1nn(C3CCOCC3)c(C)c1N2` [E389, (11R)-14-Ethenyl-4,11-dimethyl-5-(oxan-4-yl)-8-oxa-2,5,6,12,16,17-hexaazatricyclo[11.3.1.0^3,7]heptadeca-1(16)53,6,13(17),14-pentaene]: the IC50 in test [1] and in test [2] was not above 100 nM each time.

For the compound `COC1CNc2nc(ncc2Cl)Nc2c(nn(C3CC4CCC(C3)O4)c2C)OC1` (single isomer, unassigned) [E245, 14-Chloro-10-methoxy-4-methyl-5-{8-oxabicyclo[3.2.1]octan-3-yl}-8-oxa-2,5,6,12,16,17-hexaazatricyclo [11.3.1.0^3,7]heptadeca-1(16),3,6,13(17),14-pentaene], the IC50 in test [1] and in test [2] was not above 100 nM in each case.

On to `COC1CNc2nc(ncc2Cl)Nc2c(nn(C3COC3)c2C)OC1` (single isomer, unassigned) [E270, 14-Chloro-10-methoxy-4-methyl-5-(oxetan-3-yl)-8-oxa-2,5,6,12,16,17-hexaazatricyclo[11.3.1.0^3,7]heptadeca-1(16),3,6,13(17),14-pentaene], for which the IC50 in test [1] and in test [2] was not above 100 nM in each case.

`Cc1c2c(nn1C1CCCN(C3COC3)C1)OCC[C@@H](C)Nc1nc(ncc1Cl)N2` (single isomer, unassigned) [E67]: the half-maximal inhibitory concentration (IC50) in test [1] and in test [2] was not above 100 nM in each case.

Take `Cc1c2c(nn1C1CCOCC1)OCCC(CF)Nc1nc(ncc1Cl)N2` (single isomer, unassigned) [E54, 14-chloro-11-(fluoromethyl)-4-methyl-5-(oxan-4-yl)-8-oxa-2,5,6,12, 16,17-hexaazatricyclo[11.3.1.0^3,7]heptadeca-1(16),3,6,13(17),14-pentaene]: the IC50 in test [1] and in test [2] was not above 100 nM in each case.

Turning to `Cc1c2c(nn1C1COCCC1(F)F)OCCCNc1nc(ncc1Cl)N2` (single isomer, unassigned) [E302, 14-Chloro-5-(4,4-difluorooxan-3-yl)-4-methyl-8-oxa-2,5,6,12,16,17-hexaazatricyclo[11.3.1.0^3,7]heptadeca-1(16),3,6,13(17),14-pentaene], the IC50 in test [1] and in test [2] was not above 100 nM each time.

`Cc1c2c(nn1C(C)C1CCOCC1)OCCCNc1nc(ncc1Cl)N2` (single isomer, unassigned) [E186, 14-Chloro-4-methyl-5-[1-(oxan-4-yl)ethyl]-8-oxa-2,5,6,12,16,17-hexaazatricyclo[11.3.1.0^3,7]heptadeca-1(16), 3,6,13(17),14-pentaene]: the IC50 in test [1] and in test [2] was not above 100 nM throughout.

For `Cc1c2c(nn1C1CCOCC1)OCCCNc1cc(ncc1Cl)N2` [E134, 14-Chloro-4-methyl-5-(oxan-4-yl)-8-oxa-2,5,6,12,16-pentaaza tricyclo[11.3.1.0^3,7]heptadeca-1(16),3,6,13(17),14-pentaene], the half-inhibitory concentration (IC50) in test [1] and in test [2] was not above 100 nM throughout.

As to `Cc1c2c(nn1C1CCOCC1)OCCC(C(F)F)Nc1nc(ncc1Cl)N2` (single isomer, unassigned) [E88, 14-chloro-11-(difluoromethyl)-4-methyl-5-(oxan-4-yl)-8-oxa-2,5,6, 12,16,17-hexaazatricyclo[11.3.1.0^3,7]heptadeca-1(16),3,6,13(17),14-pentaene], the IC50 in test [1] and in test [2] was not above 100 nM each time.

For `Cc1c2c(nn1C1CCCOC1)OCC(C)CNc1nc(ncc1Cl)N2` (single isomer, unassigned) [E306, 14-Chloro-4,10-dimethyl-5-(oxan-3-yl)-8-oxa-2,5,6,12,16,17-hexaazatricyclo[11.3.1.0^3,7]heptadeca-1(16),3,6, 13(17),14-pentaene], the IC50 in test [1] and in test [2] was not above 100 nM in each case.

Regarding `Cc1c2c(nn1C1CCOCC1)OCCC(C)Nc1nc(ncc1Br)N2` (single isomer, unassigned) [E30, 14-bromo-4,11-dimethyl-5-(oxan-4-yl)-8-oxa-2,5,6,12,16,17-hexaaza tricyclo[11.3.1.0^3,7]heptadeca-1(16),3,6,13(17),14-pentaene], the IC50 in test [1] and in test [2] was not above 100 nM throughout.

`Cc1c2c(nn1C1CCOCC1)OCCC(C)Nc1nc(ncc1Cl)N2` (stereo not drawn) [E5, 14-Chloro-4,11-dimethyl-5-(oxan-4-yl)-8-oxa-2,5,6,12,16,17-hexaazatricyclo [11.3.1.0^3,7]heptadeca-1(16),3,6,13(17),14-pentaene]: the IC50 in test [1] and in test [2] was not above 100 nM each time.
